Measured values reported in ChEMBL document CHEMBL1201862, “PubChem BioAssay data set” (2004).
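In this assay, cells in 96-well plates receive the compound at five concentrations for 48 hours. Endpoints are linearly interpolated between the surrounding concentrations. At the GI50, growth is halved.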 Calls of active or inactive are those of the source. Cut-off read from the data, not from the text of the source: active = GI50 up to about 1.1 µM and inactive = higher.

How the values were obtained:
Test in all cases: NCI-60 cell line screen, 48 h
[1] = tested on: CCRF-CEM
[2] = tested on: SN12C
[3] = tested on: SK-MEL-5
[4] = tested on: UACC-62
[5] = tested on: OVCAR-8
[6] = tested on: SK-MEL-28
[7] = tested on: SK-OV-3
[8] = tested on: HT-29
[9] = tested on: MOLT-4
[10] = tested on: KM12
[11] = tested on: NCI-H460
[12] = tested on: SNB-19
[13] = tested on: HCT-116
[14] = tested on: NCI-H23
[15] = tested on: HL-60
[16] = tested on: IGROV-1
[17] = tested on: COLO 205
[18] = tested on: U-251
[19] = tested on: UO-31
[20] = tested on: OVCAR-4

Measured: GI50

O=C(O)Cc1ccc(N2N=C(c3ccccc3)CC2=O)cc1
inactive: [1] > 100 µM | [2] > 100 µM | [3] > 100 µM | [4] > 100 µM | [5] > 100 µM | [6] > 100 µM | [7] > 100 µM | [8] > 100 µM | [9] > 100 µM | [10] > 100 µM | [11] > 100 µM | [12] > 100 µM | [13] > 100 µM | [14] > 100 µM | [15] > 100 µM | [16] > 100 µM | [17] > 100 µM | [18] > 100 µM | [19] > 100 µM | [20] > 100 µM

CC(=O)Oc1ccccc1[C@H]1CC(=O)C[C@H](c2ccccc2OC(C)=O)C12C(=O)c1ccccc1C2=O
inactive: [1] 10.9 µM | [2] 37.4 µM | [3] 22.4 µM | [4] 13 µM | [5] 39.6 µM | [6] 17 µM | [7] 43 µM | [8] 29.2 µM | [9] 17.8 µM | [10] 59.6 µM | [11] 19.1 µM | [12] 60.4 µM | [13] 29.4 µM | [14] 26.4 µM | [15] > 100 µM | [16] 44.5 µM | [17] 22.3 µM | [18] 38.9 µM | [19] 36.3 µM | [20] 65.6 µM

Cc1[nH]c(=O)[nH]c(=O)c1/C=C/C(=O)NC(CO)CC(C)C (stereo not given)
inactive: [1] 181 µM | [2] 274 µM | [3] > 375 µM | [4] > 375 µM | [5] 160 µM | [6] 305 µM | [7] > 300 µM | [8] 222 µM | [9] 237 µM | [10] > 375 µM | [11] 163 µM | [12] 356 µM | [13] 322 µM | [14] > 362 µM | [15] > 361 µM | [16] > 375 µM | [17] 242 µM | [18] > 343 µM | [19] > 375 µM | [20] 214 µM

CSCC[C@@H](NC(=O)[C@H](CC(C)C)NC(=O)C(Cc1cnc[nH]1)NC(=O)CNC(=O)[C@@H](NC(=O)[C@H](C)NC(=O)[C@H](Cc1cn(C=O)c2ccccc12)NC(=O)[C@H](CCC(N)=O)NC(=O)[C@@H](N)CC(N)=O)C(C)C)C(N)=O (stereo not given in full)
inactive: [1] > 100 µM | [2] > 100 µM | [3] > 100 µM | [4] > 100 µM | [5] > 100 µM | [6] > 100 µM | [7] > 100 µM | [8] > 100 µM | [9] > 100 µM | [10] > 100 µM | [11] > 100 µM | [12] > 100 µM | [13] > 100 µM | [14] > 100 µM | [15] > 100 µM | [16] > 100 µM | [17] > 100 µM | [18] > 100 µM | [19] > 100 µM | [20] > 100 µM

NCCCCCC(CCN)SCC1OC(n2cnc3c(N)ncnc32)C(O)C1O (stereo not given)
inactive: [1] 891 µM | [2] > 574 µM | [3] > 1110 µM | [4] 537 µM | [5] > 708 µM | [6] 578 µM | [7] 927 µM | [8] 569 µM | [9] 551 µM | [10] 416 µM | [11] 379 µM | [12] 615 µM | [13] 233 µM | [14] 764 µM | [15] 519 µM | [16] 1180 µM | [17] > 798 µM | [18] 687 µM | [19] 394 µM | [20] > 1440 µM
